The results in this text go back to US6130220A, “Sulfamide-metalloprotease inhibitors” (Syntex (USA) Inc., priority 1999, dated 2000).

In test [1] the test system is TNF-α release from Human Monomac 6 cells. Briefly: Inhibition of TNF release in vitro, Monomac 6 cells, LPS/PMA. Format: cell-based. The following applies: MONO-MAC-6, 2 μM, 2 h, read-out: TNF-α % inhibition, Conc. 2 μM. The protocol:
The activity of compounds of this invention in inhibiting the TNF release was determined, using the a minor modification of the method described in Pradines-Figueres, A. and Raetz, C. R. H., J. Biol. Chem., 267 (32), 23261, (1992).
Human Monomac 6 cells (Ziegler-Heitbrock, H. W. L., et al., Int. J. Cancer, 41, 456, (1988)) were cultured at 37° C. in RPMI 1640 medium containing 10% fetal calf serum to a density of 1×10^5 cells/ml. 0.23 ml of these cells were placed in each well of a tissue culture plate and the cells were incubated for 15 min. The test compounds were dissolved in above mentioned medium and added and the incubation was continued for an additional 15 min. 10 μl of an lipopolysaccharide/phorbol-12-myristate-13-acetate (LPS/PMA) mixture was added such that the final concentration of lipopolysaccharide was 10 ng/ml and the final concentration of phorbol-12-myristate-13-acetate was 30 ng/ml. The cells were incubated for 2 h after which the plate was centrifuged and the medium was removed and analyzed for TNF content. The analysis was performed using a TNF Quantikine® Inmunoassay (R & D Systems, Minneapolis, Minn. 55413) by following the manufacturer's protocol.
The TNF-α inhibitory activity of test materials, i.e., the measure of the TNF-α content in the test group relative to the vehicle treated group (control group) was: […]

For another test, the system named is TNF-α. Nature of the test: Inhibition of LPS induced TNF-α production in mice in vivo. The following applies: s.c. compound, LPS 50 μg/mouse i.p. 1 h later, blood after 1.5 h. The protocol: The activity of compounds of this invention in inhibiting the TNF-α release was determined, using a minor modification of the methods described in Zanetti, G.; Heumann, D., et. al., "Cytokine production after intravenous or peritoneal Gram-negative bacterial challenge in mice" J. Immunol., 148, 1890, (1992) and Sekut, L., Menius, J. A., et. al., "Evaluation if the significance of elevated levels of systemic and localized tumor necrosis factor in different animal models of inflammation" J. Lab. Clin. Med., 124, 813, (1994).
Female Balbic mice were anesthetized and injected subcutaneously with the test compounds dissolved in CMC vehicle or hydroxypropylmethyl cellulose based vehicle. Control animals received only the vehicle. After 1 h, LPS (50 μg/mouse, Sigma #13129, Sigma Chemical Co., St. Louis, Mo.) was injected intraperitoneally. After 1.5 h, blood was collected from the retro-rbital plexus region of the animals in a miicrotainer serum separator tube (Becton Dickinson, Cat. No. #5960, Becton Dickinson & Co., Franklin Lakes, N.J.). The sera was separated and the amount of TNF-α was determined using the EM-TNFA® kit (Endogen, Woburn, Mass.) by following the manufacturer's protocol.

The target in another test is T1, Collagenase-I (Homo sapiens, UniProt P03956).
T1 construct: the collagenase-1 catalytic domain was released by treatment with 1 mM of aninophenylmercuric acetate; ubiquitin (cleaved yes); made in house; host or cells: E. coli
T1 sequence (P03956 100-269 limits assumed): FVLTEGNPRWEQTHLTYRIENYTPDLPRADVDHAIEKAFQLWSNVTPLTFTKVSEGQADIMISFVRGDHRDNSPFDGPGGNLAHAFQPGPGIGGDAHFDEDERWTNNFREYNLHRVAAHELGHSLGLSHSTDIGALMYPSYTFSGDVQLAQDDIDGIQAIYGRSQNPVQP
Nature of the test: MMP enzymatic assay, hydrolysis of MCA-Pro-Leu-Gly-Leu-DPA-Ala-Arg-NH2, Collagenase-I. Format: biochemical. The following applies: 37° C., pH 7.5, 2.5% DMSO; read-out: Collagenase-I IC50.

The target in a further test is Collagenase-III. Briefly: MMP enzymatic assay, hydrolysis of MCA-Pro-Leu-Gly-Leu-DPA-Ala-Arg-NH2, Collagenase-III. Format: biochemical. The settings on record: 37° C., pH 7.5, 2.5% DMSO. The procedure:
The propeptide and catalytic domain portion of human collagenase-3 was expressed in E. Coli as an N-terminal fusion protein with ubiquitin. After purification, the catalytic domain was released by treatment with 1 mM APMA for 1 hour at 37° C., and then purified by zinc chelate chromatography.
Rat collagenase-3 was purified in active form from the culture media of uterine smooth muscle cells as described in Roswit, W. T. et al., Arch. Biochem. Biophys., 225, 285-295 (1983).
The matrix metalloprotease inhibitory activity of compounds of this invention in vitro was determined based on the hydrolysis of MCA-Pro-Leu-Gly-Leu-DPA-Ala-Arg-NH2 (Bachem, Inc.) at 37° C. as described in Knight, C. G., et al., FEBS Lett., 296, 263-266 (1992).
The matrix metalloprotease enzyme was diluted with assay buffer (50 mM Tricine pH 7.5, 200 mM NaCl, 10 mM CaCl2, and 0.005% Brij-35) containing 10 μmole of above substrate dissolved in DMSO. Compounds of the invention dissolved in DMSO or only DMSO (control samples) were added such that the final DMSO concentration in all assays was 2.5%. The fluorescence changes were monitored with a Perkin-Elmer LS-50B flourimeter using an excitation wavelength of 328 nm and an emission wavelength of 393 nm.

In general, inhibition refers to the drop in the measured response relative to a control, in per cent. A word on the IC50: it is the concentration that gives 50% inhibition. As for `O=C(NO)[C@H]1CCCCN1S(=O)(=O)N1CCC(c2c[nH]c3c(F)c(F)c(F)c(F)c23)CC1` [compound 299, N-hydroxy-1-[4-(4,5,6,7-tetrafluoroindol-3-yl)piperdine-1-sulfonyl]piperidine-2-(R)-carboxamide], the inhibition at 2 µM in test [1] stood at 90%. Further, the TNF-α % inhibition in the test with TNF-α is reported as 52%. Further, the IC50 on Collagenase-I is greater than 50000 nM; on Collagenase-III, 410 nM.
